Source: patent publication US12637480B2, “Heterocyclic compounds as sting modulators” (BEIGENE, LTD., priority 2020, dated 2026)
Where a name gives a salt, the structure may show the parent alone.

Columns and labels:
[1] = target: human STING (hSTING) R232 variant in THP1-Dual KI-hSTING-R232 Cells (Homo sapiens, UniProt Q86WV6, H232R); assay: STING cellular assay in THP1-Dual KI-hSTING-R232 cells (ISG54 Lucia luciferase reporter, QUANTI-Luc)
[2] = target: human STING (hSTING) HAQ variant in THP1-Dual HAQ Cells (Homo sapiens, UniProt Q86WV6, G230A/H232R/R293Q/R71H); assay: STING cellular assay in THP1-Dual HAQ cells (ISG54 Lucia luciferase reporter, QUANTI-Luc)
Chain of human STING (hSTING) HAQ variant in THP1-Dual HAQ Cells (Q86WV6 whole entry R71H/G230A/H232R/R293Q): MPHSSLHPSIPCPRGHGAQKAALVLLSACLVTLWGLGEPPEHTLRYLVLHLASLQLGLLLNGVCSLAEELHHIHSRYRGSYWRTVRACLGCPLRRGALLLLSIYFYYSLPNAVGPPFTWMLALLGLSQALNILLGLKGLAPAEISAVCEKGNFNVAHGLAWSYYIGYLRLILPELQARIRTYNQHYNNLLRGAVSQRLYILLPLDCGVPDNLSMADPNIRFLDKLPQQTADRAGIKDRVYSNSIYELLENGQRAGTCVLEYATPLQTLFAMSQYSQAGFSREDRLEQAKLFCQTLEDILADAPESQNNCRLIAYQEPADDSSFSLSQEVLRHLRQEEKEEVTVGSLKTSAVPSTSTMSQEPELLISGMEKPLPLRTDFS

Chain of human STING (hSTING) R232 variant in THP1-Dual KI-hSTING-R232 Cells (Q86WV6 whole entry H232R): as the sequence (Q86WV6 whole entry R71H/G230A/H232R/R293Q) above, with H71R, A230G, Q293R counted along it

SMILES	EC50 [1] [nM]	EC50 [2] [nM]
CCn1nc(C)cc1C(=O)Nc1nc2cc(C(N)=O)cnc2n1C/C=C/Cn1c2nc(-c3cc(C)nn3CC)ncc2c2cc(C(N)=O)cc(OCCCCNC)c21 [Example 3-AB-HCl, (E)-9-(4-(6-carbamoyl-2-(1-ethyl-3-methyl-1H-pyrazole-5-carboxamido)-3H-imidazo[4,5-b]pyridin-3-yl)but-2-en-1-yl)-2-(1-ethyl-3-methyl-1H-pyrazol-5-yl)-8-(4-(methylamino)butoxy)-9H-pyrimido[4,5-b]indole-6-carboxamide hydrochloride]	23	640
CCn1nc(C)cc1C(=O)Nc1nc2cc(C(N)=O)cnc2n1C/C=C/Cn1c2nc(-c3cc(C)nn3CC)ncc2c2cc(C(N)=O)cc(OCCCN3CCN(C(=O)OC(C)(C)C)CC3)c21 [Example 2-AA, tert-butyl (E)-4-(3-((6-carbamoyl-9-(4-(6-carbamoyl-2-(1-ethyl-3-methyl-1H-pyrazole-5-carboxamido)-3H-imidazo[4,5-b]pyridin-3-yl)but-2-en-1-yl)-2-(1-ethyl-3-methyl-1H-pyrazol-5-yl)-9H-pyrimido[4,5-b]indol-8-yl)oxy)propyl)piperazine-1-carboxylate]	0.46	2.4
CCn1nc(C)cc1C(=O)Nc1nc2cc(C(N)=O)cnc2n1C/C=C/Cn1c2nc(-c3cc(C)nn3CC)ncc2c2cc(C(N)=O)cc(OCCC3CNC3)c21 [Example 4-AB, (E)-8-(2-(azetidin-3-yl)ethoxy)-9-(4-(6-carbamoyl-2-(1-ethyl-3-methyl-1H-pyrazole-5-carboxamido)-3H-imidazo[4,5-b]pyridin-3-yl)but-2-en-1-yl)-2-(1-ethyl-3-methyl-1H-pyrazol-5-yl)-9H-pyrimido[4,5-b]indole-6-carboxamide]	30	1040
CCn1nc(C)cc1C(=O)Nc1nc2cc(C(N)=O)cnc2n1C/C=C/Cn1c2nc(-c3cc(C)nn3CC)ncc2c2cc(C(N)=O)cc(OCCCN3CCNCC3)c21 [Example 2-AB-HCl, (E)-9-(4-(6-carbamoyl-2-(1-ethyl-3-methyl-1H-pyrazole-5-carboxamido)-3H-imidazo[4,5-b]pyridin-3-yl)but-2-en-1-yl)-2-(1-ethyl-3-methyl-1H-pyrazol-5-yl)-8-(3-(piperazin-1-yl)propoxy)-9H-pyrimido[4,5-b]indole-6-carboxamide hydrochloride]	11	565
CCn1nc(C)cc1C(=O)Nc1nc2cc(C(N)=O)cnc2n1C/C=C/Cn1c2nc(-c3cc(C)nn3CC)ncc2c2cc(C(N)=O)cc(OCCC3CCN(C(=O)OC(C)(C)C)CC3)c21 [Example-6-AA, tert-butyl (E)-4-(2-((6-carbamoyl-9-(4-(6-carbamoyl-2-(1-ethyl-3-methyl-1H-pyrazole-5-carboxamido)-3H-imidazo[4,5-b]pyridin-3-yl)but-2-en-1-yl)-2-(1-ethyl-3-methyl-1H-pyrazol-5-yl)-9H-pyrimido[4,5-b]indol-8-yl)oxy)ethyl)piperidin-1-carboxylate]	0.9	49
CCn1nc(C)cc1C(=O)Nc1nc2cc(C(N)=O)cnc2n1C/C=C/Cn1c2nc(-c3cc(C)nn3CC)ncc2c2cc(C(N)=O)cc(OCCC3CCNCC3)c21 [Example 6-AB]	29	674
CCn1nc(C)cc1C(=O)Nc1nc2cc(C(N)=O)cnc2n1C/C=C/Cn1c2nc(-c3cc(C)nn3CC)ncc2c2cc(C(N)=O)cc(OCCCN(C)C(=O)OC(C)(C)C)c21 [Example 1-AA]	0.58	3.4
CCn1nc(C)cc1C(=O)Nc1nc2cc(C(N)=O)cnc2n1C/C=C/Cn1c2nc(-c3cc(C)nn3CC)ncc2c2cc(C(N)=O)cc(OCCCC3CNC3)c21 [Example 5-AB, (E)-8-(3-(azetidin-3-yl)propoxy)-9-(4-(6-carbamoyl-2-(1-ethyl-3-methyl-1H-pyrazole-5-carboxamido)-3H-imidazo[4,5-b]pyridin-3-yl)but-2-en-1-yl)-2-(1-ethyl-3-methyl-1H-pyrazol-5-yl)-9H-pyrimido[4,5-b]indole-6-carboxamide]	27	862
CCn1nc(C)cc1C(=O)Nc1nc2cc(C(N)=O)cnc2n1C/C=C/Cn1c2nc(-c3cc(C)nn3CC)ncc2c2cc(C(N)=O)cc(OCCCCN(C)C(=O)OC(C)(C)C)c21 [Example 3-AA, tert-butyl (E)-(4-((6-carbamoyl-9-(4-(6-carbamoyl-2-(1-ethyl-3-methyl-1H-pyrazole-5-carboxamido)-3H-imidazo[4,5-b]pyridin-3-yl)but-2-en-1-yl)-2-(1-ethyl-3-methyl-1H-pyrazol-5-yl)-9H-pyrimido[4,5-b]indol-8-yl)oxy)butyl)(methyl)carbamate]	0.52	4.1
CCn1nc(C)cc1C(=O)Nc1nc2cc(C(N)=O)cnc2n1C/C=C/Cn1c2nc(-c3cc(C)nn3CC)ncc2c2cc(C(N)=O)cc(OCCCC3CCN(C(=O)OC(C)(C)C)CC3)c21 [Example 7-AA, tert-butyl (E)-4-(3-((6-carbamoyl-9-(4-(6-carbamoyl-2-(1-ethyl-3-methyl-1H-pyrazole-5-carboxamido)-3H-imidazo[4,5-b]pyridin-3-yl)but-2-en-1-yl)-2-(1-ethyl-3-methyl-1H-pyrazol-5-yl)-9H-pyrimido[4,5-b]indol-8-yl)oxy)propyl)piperidine-1-carboxylate]	1	28
CCn1nc(C)cc1C(=O)Nc1nc2cc(C(N)=O)cnc2n1C/C=C/Cn1c2nc(-c3cc(C)nn3CC)ncc2c2cc(C(N)=O)cc(OCCCC3CN(C(=O)OC(C)(C)C)C3)c21 [Example 5-AA, tert-butyl (E)-3-(3-((6-carbamoyl-9-(4-(6-carbamoyl-2-(1-ethyl-3-methyl-1H-pyrazole-5-carboxamido)-3H-imidazo[4,5-b]pyridin-3-yl)but-2-en-1-yl)-2-(1-ethyl-3-methyl-1H-pyrazol-5-yl)-9H-pyrimido[4,5-b]indol-8-yl)oxy)propyl)azetidine-1-carboxylate]	1.6	39
CCn1nc(C)cc1C(=O)Nc1nc2cc(C(N)=O)cnc2n1C/C=C/Cn1c2nc(-c3cc(C)nn3CC)ncc2c2cc(C(N)=O)cc(OCCCN3CCN(C(=O)CON)CC3)c21 [Example 2-AC, (E)-8-(3-(4-(2-(aminooxy)acetyl)piperazin-1-yl)propoxy)-9-(4-(6-carbamoyl-2-(1-ethyl-3-methyl-1H-pyrazole-5-carboxamido)-3H-imidazo[4,5-b]pyridin-3-yl)but-2-en-1-yl)-2-(1-ethyl-3-methyl-1H-pyrazol-5-yl)-9H-pyrimido[4,5-b]indole-6-carboxamide]	10	118
CCn1nc(C)cc1C(=O)Nc1nc2cc(C(N)=O)cnc2n1C/C=C/Cn1c2nc(-c3cc(C)nn3CC)ncc2c2cc(C(N)=O)cc(OCCC3CN(C(=O)OC(C)(C)C)C3)c21 [Example 4-AA, tert-butyl (E)-3-(2-((6-carbamoyl-9-(4-(6-carbamoyl-2-(1-ethyl-3-methyl-1H-pyrazole-5-carboxamido)-3H-imidazo[4,5-b]pyridin-3-yl)but-2-en-1-yl)-2-(1-ethyl-3-methyl-1H-pyrazol-5-yl)-9H-pyrimido[4,5-b]indol-8-yl)oxy)ethyl)azetidine-1-carboxylate]	0.78	4.8
CCn1nc(C)cc1C(=O)Nc1nc2cc(C(N)=O)cnc2n1C/C=C/Cn1c2nc(-c3cc(C)nn3CC)ncc2c2cc(C(N)=O)cc(OCCCNC)c21 [Example 1-AB, (E)-9-(4-(6-carbamoyl-2-(1-ethyl-3-methyl-1H-pyrazole-5-carboxamido)-3H-imidazo[4,5-b]pyridin-3-yl)but-2-en-1-yl)-2-(1-ethyl-3-methyl-1H-pyrazol-5-yl)-8-(3-(methylamino)propoxy)-9H-pyrimido[4,5-b]indole-6-carboxamide]	6.2	355
CCn1nc(C)cc1C(=O)Nc1nc2cc(C(N)=O)cnc2n1C/C=C/Cn1c2nc(-c3cc(C)nn3CC)ncc2c2cc(C(N)=O)cc(OCCCC3CCNCC3)c21 [Example 7-AB]	16	305
CCn1nc(C)cc1C(=O)Nc1nc2cc(C(N)=O)cnc2n1C/C=C/Cn1c2nc(-c3cc(C)nn3CC)ncc2c2cc(C(N)=O)cc(OCCCN(C)C(=O)CON)c21 [Example 1-AC]	3.6	34
